Laboratory results reported in patent publication US20250120916A1, “NANOTECHNOLOGY FOR CHEMOTHERA0PY DRUG CAPTURE” (The Regents of the University of California, priority 2021, published 2025).
Counter-ions that a name gives are not always drawn. Like-named read-outs stand apart in the source and are kept apart here.

Experiments:
fibroblast = settings: literature (75); cited from earlier work
[1] = Biodetoxification test, HUVECs; settings: human
Experimental: (§1) Biodetoxification tests: To determine the biodetoxification effect of ENCC, 5×10^3 NIH/3T3 cells or HUVECs were seeded in 96-well plates with 200 μL of DMEM supplemented with FBS (10% v/v) and 1% v/v of Pen-Strep or EGM bullet kit HUVEC media, respectively. The cells were allowed to attach to the bottom of wells for 1 h, the media were aspirated, and the cells were rinsed with 200 μL of DPBS, followed by the addition of 200 μL of corresponding media including DOX (final concentration=400 μg mL−1), which was previously detoxified by adding ENCC (final concentration=1 mg mL−1), centrifuged at 1000 rpm for 3 min, and separated from the precipitate. The control experiments were conducted in corresponding DOX-free cell culture media or DOX-containing media without ENCC treatment. Each group consisted of 5 wells. After 8 h, the media was aspirated, the cells were rinsed twice with 200 μL of DPBS, followed by the addition of 100 μL of PrestoBlue™ reagent to each well. The cells were incubated for 1 h, and then the PrestoBlue™ absorbance was recorded using the microplate reader. Immediately afterwards, the cells were again rinsed twice with 200 μL, of DPBS, followed by the addition of 150 μL, of the Live/Dead reagents. The cells were incubated for 90 min and imaged using the fluorescence microscope. The fluorescence images were analyzed using the Imagej Software.(62)

HUVECs = assay: Biodetoxification test, HUVECs; settings: untreated DOX 400 μg mL−1 media, 8 h
Experimental: as §1

[2] = Biodetoxification test, NIH/3T3 fibroblasts; settings: mouse, NIH/3T3 fibroblasts
Experimental: as §1

NIH/3T3 fibroblasts = assay: Biodetoxification test, NIH/3T3 fibroblasts; settings: NIH/3T3, untreated DOX 400 μg mL−1 media, 8 h
Experimental: as §1

[3] = Hydrodynamic size (DLS) and ζ-potential measurements; assay type: physicochemical
Experimental: Hydrodynamic size and ζ-potential measurements: A Zetasizer Nano ZS from Malvern Panalytical Ltd was used to conduct dynamic light scattering (DLS) and electrokinetic measurements in folded capillary cells (DTS1070). Samples were prepared with an ENCC concentration of 0.1 mg mL−1 in 1 mg mL−1 of NaCl solution A final DOX concentration of 0.03 mg mL−1 was used to have an ˜1:10 molar ratio of DOX to the carboxylate of ENCC For ζ-potential measurements on DOX, the concentration was lowered to 0.003 mg mL−1. At least three measurements were taken for each DLS experiment, with 11 runs per measurement. For the ζ-potential tests, the number of measurements was at least three, with up to 100 runs per measurement.

[4] = tested on: red blood cells (RBCs) in human whole blood; assay: Hemolysis assessment (ASTM E2524-08); assay type: cell-based
Experimental: Hemolysis assessment: The hemolytic activity of ENCC was measured via exposing human whole blood, withdrawn from 3 healthy volunteer donors by another lab, to varying concentrations of ENCC and measuring the concentration of released hemoglobin in plasma according to the American Society for Testing and Materials (ASTM) E2524-08 (2013) standard analysis of hemolytic activity of nanoparticles.(61) A colorimetric technique was used to measure the oxidation of […] (Drabkin's reagent) at an absorbance of 540 nm A calibration curve was obtained using […] of pure human hemoglobin to quantify the concentration of released hemoglobin in heparinized human whole blood exposed to ENCC The blood samples were diluted in DPBS to have 10±2 mg of hemoglobin per mL. ENCC was added to a microcentrifuge tube, followed by the addition of DPBS (800 μL) and the diluted blood (100 μL). After gently mixing the samples, they were incubated for 3 h±15 min at 37° C. and centrifuged for 15 min at 14000 rpm and ambient temperature. […] A microplate reader (540 nm, BioTek UV/vis Synnergy 2, USA) was then used to measure the relative absorbance of each well against the reagent blank to correct the background (blood-free samples) absorbance. The hemolysis percentage was measured based on the hemoglobin concentration in the samples divided by the total blood hemoglobin (˜10 mg mL−1). […]

[5] = DOX:COO− ~0.1, ENCC 100 μg mL−1

In the case of COc1cccc2c1C(=O)c1c(O)c3c(c(O)c1C2=O)C[C@@](O)(C(=O)CO)C[C@@H]3O[C@H]1C[C@H](N)[C@H](O)[C@H](C)O1 [DOX, Doxorubicin hydrochloride], the “DOX concentration that induces fibroblast cellular toxicity” value (fibroblast) is given as “above 5×10^−5 M”, the viability at 8 h, 400 μg mL−1 [1] is given as roughly 35% and the “decrease in metabolic activity (PrestoBlue)” value (HUVECs) is given as “more than 2000%”. For the same compound, the viability at 8 h, 400 μg mL−1 [2] was less than 10%, the “decrease in metabolic activity (PrestoBlue)” value (NIH/3T3 fibroblasts) was “more than 2000%” and the “hydrodynamic size after ENCC addition” value [3, 5] was roughly 350 nm. For the same compound, the “ζ-potential after ENCC addition” value [3, 5] was roughly −32 mV, the “hydrodynamic size of DOX aggregates” value ([3]; before ENCC addition) was roughly 66 nm and the “ζ-potential of DOX aggregates” value ([3]; before ENCC addition) was “~+24 mV”.

In the case of Triton X-100, the “hemolysis percentage (controls)” value ([4]; Triton X-100 1% v/v positive control, PEG 4.4% v/v negative control) is reported as greater than 95%.

For polyethylene glycol [PEG], the “hemolysis percentage (controls)” value [4] was “does not induce significant hemolysis”.
